Experimental findings from patent publication US20230143604A1, “QW DOSING OF GIP RECEPTOR AGONIST PEPTIDE COMPOUNDS AND USES THEREOF” (TAKEDA PHARMACEUTICAL COMPANY LIMITED, priority 2020, published 2023) are described below.

Molecules are shown by their SMILES. “And” between values parts separate entries of the source, which are not always exact repeats. Identical values can stand only once.

One data set concerns male ferrets. The data set is classed as in vivo. How it is done: 1. Effect of subcutaneously administered GIP receptor agonist peptide in morphine-induced acute emetic model.
To evaluate the antiemetic effect, the GIP receptor agonist peptides other than natural human GIP are subcutaneously administered into male ferrets 24 hrs before morphine administration. Up to 60 minutes after morphine administration, the condition of the ferrets is monitored to record the frequencies and time points of abdominal contraction motions, vomiting behaviors, licking with the tongue, and fidgety behavior occurring. GIP receptor agonist peptide compounds of the present disclosure dosed at 0.3-10 nmol/kg attenuated the morphine (0.6 mg/kg, s.c.)-induced emesis in the ferrets.
GIP receptor agonist peptides are dissolved with a vehicle (0.09 w/v % tween 80/10% DMSO/saline), respectively, to prepare test solutions. […] of the test solutions and the vehicle are subcutaneously administered to ferrets (4 in each group), respectively. At the time of each of 4 or 24 hours after administration, 0.6 mg/kg of morphine is subcutaneously administered.

The subject of a further data set is C57BL/6J mice. The experiment in a line: Oral glucose tolerance test (OGTT). The class given is in vivo. Conditions: 3 nmol/kg s.c., 24 hours before glucose loading. The essentials:
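Peptide or vehicle given s.c. at 0.1, 0.3, 3 or 10 nmol/kg (peptide-dependent), 24 h before oral 50% dextrose at 5 ml/kg unless stated otherwise. Blood glucose read at 0, 15, 30 and 60 min. % inhibition = (1−(AUC cpd−AUC naïve)/(AUC veh−AUC naïve))×100.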

A short description of data set [1]: Pharmacokinetics in dog after IV and SC dosing. The following applies: in vivo, 3 nmol/kg. The essentials:
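Dogs were dosed IV or SC at 1 mL/kg with peptide at 3 nmol/mL in 10% DMSO/0.09% Polysorbate/PBS pH 7.4. K2-EDTA plasma was sampled to 336 h, and peptide was quantified by LCMS to derive half-life.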

For the next data set, the target named is T1, human GLP-1R (Homo sapiens, UniProt P43220).
T1 construct: HEK-293T cells overexpressing full-length human GLP-1R; FLAG (N); host or cells: HEK-293T
T1 sequence (P43220 24-463): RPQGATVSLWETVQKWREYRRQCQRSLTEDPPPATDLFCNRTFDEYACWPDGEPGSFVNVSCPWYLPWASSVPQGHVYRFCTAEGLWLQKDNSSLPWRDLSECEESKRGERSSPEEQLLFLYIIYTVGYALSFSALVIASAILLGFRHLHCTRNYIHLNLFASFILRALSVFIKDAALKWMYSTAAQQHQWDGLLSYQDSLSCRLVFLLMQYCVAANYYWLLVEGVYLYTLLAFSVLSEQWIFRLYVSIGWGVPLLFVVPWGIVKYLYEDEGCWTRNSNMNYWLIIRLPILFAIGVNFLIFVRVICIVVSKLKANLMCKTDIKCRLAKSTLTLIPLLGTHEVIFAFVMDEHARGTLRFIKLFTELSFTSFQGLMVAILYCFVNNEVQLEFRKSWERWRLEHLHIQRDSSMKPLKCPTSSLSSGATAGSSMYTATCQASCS
In words: Human GLP1R agonist activity, intracellular cAMP accumulation. The class given is cell-based. Conditions: HEK-293T cells overexpressing human GLP-1R, 1 hr, read-out: Human GLP1R cAMP EC50, HEK293T. The essentials: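 Frozen assay-ready cells washed and resuspended at 4×10^5 cells/mL in Krebs Ringer buffer, then incubated with compound 1 hr at room temperature in the dark. cAMP read by HTRF (anti-cAMP antibody, d2-cAMP tracer). Normalised to 1 nm GLP-1 (100%) and DMSO (0%).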

Data set [2] can be described thus: Human plasma protein binding (PPB). The class given is in vitro ADME. Conditions: human, plasma. In a few lines: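 Peptides spiked at 1000 nmol/L into pooled human K2-EDTA plasma adjusted to pH 7.4, incubated 30 min at 37 °C, then ultracentrifuged at ~450,000 g, 4 °C for 3 h. Fu derived from LC-MS/MS (MRM) peak area ratios, supernatant versus plasma.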
Data set [3] is described as follows: Dog plasma protein binding (PPB). The data set is classed as in vitro ADME. The following applies: dog, serum, pH 7.4. In a few lines:
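Dog serum replaced human serum, with the protocol and analysis otherwise the same as for human plasma protein binding. Values are reported as fraction unbound (Fu,plasma) expressed as a percentage.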

Consider `CC[C@H](C)[C@H](NC(=O)[C@H](CO)NC(=O)[C@H](Cc1ccc(O)cc1)NC(=O)[C@H](CC(=O)O)NC(=O)[C@H](CO)NC(=O)[C@@H](NC(=O)[C@H](Cc1ccccc1)NC(=O)[C@@H](NC(=O)CNC(=O)[C@H](CCC(=O)O)NC(=O)C(C)(C)NC(=O)[C@H](Cc1ccc(O)cc1)NC)[C@@H](C)O)[C@@H](C)CC)C(=O)N[C@@H](C)C(=O)N[C@@H](CC(C)C)C(=O)N[C@@H](CC(=O)O)C(=O)N[C@@H](CCCNC(=N)N)C(=O)N[C@@H](CCCCNC(=O)CNC(=O)CNC(=O)CNC(=O)CNC(=O)CNC(=O)CCCCCCCCCCCCCCCCC(=O)O)C(=O)N[C@@H](C)C(=O)N[C@@H](CCC(N)=O)C(=O)NC(C)(C)C(=O)N[C@@H](CC(=O)O)C(=O)N[C@@H](Cc1ccccc1)C(=O)N[C@H](C(=O)N[C@@H](CC(N)=O)C(=O)N[C@@H](Cc1c[nH]c2ccccc12)C(=O)N[C@@H](CC(C)C)C(=O)N[C@@H](CC(C)C)C(=O)N[C@@H](C)C(=O)N[C@@H](CCC(N)=O)C(=O)N[C@@H](CO)C(=O)N1CCC[C@H]1C(=O)N[C@@H](CO)C(=O)N[C@@H](CO)C(=O)NCC(=O)N[C@@H](C)C(=O)N1CCC[C@H]1C(=O)N1CCC[C@H]1C(=O)N1CCC[C@H]1C(=O)N[C@@H](CO)C(N)=O)C(C)C` [Compound 50, Me-Y-Aib-E-G-T-F-I-S-D-Y-S-I-A-L-D-R-Km-A-Q-Aib-D-F-V-N-W-L-L-A-Q-S-P-S-S-G-A-P-P-P-S-NH2], for which, in the data set on male ferrets (4 hrs, 0.3 nmol/kg s.c.), the “% inhibition of emetic events at doses (nmol/kg) and timepoints shown in ferret morphine model” value was 4 hrs: 27% (0.3 nmol/kg);. In the data set with male ferrets (morphine 0.6 mg/kg s.c., peptides dosed at 0.3-10 nmol/kg s.c.), the “effect on morphine-induced emesis in ferrets (in words)” value is given as “effective in completely inhibiting the frequency of emesis”. Further, in the data set on C57BL/6J mice, the “Oral Glucose Tolerance Test Percent decrease in blood glucose AUC (%) over 60 mins” value is 89% and 69%. Besides, in data set [1] (iv), the half-life (commonly the time needed for the level to fall by half in the phase considered) is 74 h. In data set [1] (sc), the MRT last (in general, a mean duration of stay, worked out from the concentration-time curve) is 103 h. Further, the EC50 (in general, the concentration at which the effect is half-maximal) at human GLP-1R is 20.4 nM. In addition, in data set [2], the “free unbound peptide in human plasma (in words)” value is listed as “optimum free unbound peptide”. Moreover, the fraction unbound (usually free concentration divided by total concentration) at 30 min, 1000 nmol/L in data set [3] came out at 0.0006.
